Laboratory results taken from patent publication EP3018135A1, “A COMPOUND WITH ANTI-CARCINOGENIC EFFECT AND A METHOD FOR PRODUCTION OF THIS COMPOUND” (Ulusal Bor Arastirma Enstitusu, priority 2014, dated 2016).

Experiments:
K562 cells [1] = test: Apoptotic effect by flow cytometry with Annexin V-FITC/7-AAD kit; format: cell-based
Excerpt: (§1) In order to determine anti-carcinogenic effect of the inventive compound acute promyelocytic leukaemia (HL-60) and chronic myelogenous leukaemia (K-562) cells were used to prepare cancer cell cultures under suitable conditions. Both leukemic cell lines were subjected to the following methods: • Determination of cytotoxicity / MTT test; • Determination of apoptotic effect using flow cytometry device with Annexin V-FITC/7-AAD kit; • Determination of apoptotic effect using flow cytometry device with caspase-3/7 activation; • Determination of mitochondrial membrane integrity of cells using JC-1 dyeing method; • Determination of apoptotic DNA using DNA fragmentation method with agarose gel; • Determination of NF-kB and c-myc mRNA expression levels using real time PCR (polymerase chain reaction) method; • Gene panel study using RT-PCR method.

[2] = tested on: NF-kB in HT-29 colon cancer cells; conditions: cited from earlier work
NF-kB in Caco2 cells = conditions: cited from earlier work
[3] = tested on: NF-kB in HCT116 colon cancer cells; conditions: cited from earlier work
[4] = tested on: NF-kB and c-myc mRNA expression in HL-60 cells; test: NF-kB and c-myc mRNA expression levels by real time PCR; format: cell-based; conditions: RT-PCR
Excerpt: as §1

[5] = tested on: NF-kB and c-myc mRNA expression in K562 cells; test: as above; format: cell-based; conditions: RT-PCR
Excerpt: as §1

[6] = tested on: NF-kB levels in MM.1S cells; conditions: 12 nmol/mL, 12th and 24th hours of incubation, ELISA; cited from earlier work
HL-60 cell line = test: Apoptotic effect by flow cytometry with Annexin V-FITC/7-AAD kit; format: cell-based
Excerpt: as §1

K562 cells [7] = test: Determination of cytotoxicity / MTT test; format: cell-based
Excerpt: as §1

HL-60 cells [8] = test: Determination of cytotoxicity / MTT test; format: cell-based
Excerpt: as §1

K562 cells [9] = test: Mitochondrial membrane integrity, JC-1 dyeing method; format: cell-based; conditions: 12.5 µM
Excerpt: as §1

HL-60 cells [10] = test: as above; format: cell-based; conditions: 12.5 µM (increase starting from 1.5 µM)
Excerpt: as §1

[11] = tested on: NFkB-1, p53, PIK3CA, BCL-3, ICAM1, KRAS and BCR genes in K562 cells; test: Gene panel study by RT-PCR; format: cell-based; conditions: in comparison to control and Bortezomib groups
Excerpt: as §1
(§2) The genes used in gene panel study with RT-PCR method include; NFKB-1, TNF, RELA, NMI, TP53, IL-6, TP53, PIK3CA, NFKB-2, BCL-3, NFKBIA, RELB, ICAM1, IL-8, KRAS, BCR, GAPDH.

[12] = tested on: NFkB-1, p53, PIK3CA, BCL-3, ICAM1, KRAS and BCR genes in HL-60 cells; test: Gene panel study by RT-PCR; format: cell-based; conditions: in comparison to control and Bortezomib groups, decrease more effective than in K562 cells
Excerpt: as §1, §2

K562 cells [13] = test: Apoptotic effect by flow cytometry with caspase-3/7 activation; format: cell-based; conditions: 12.5 µM, 24 hours of incubation
Excerpt: as §1

CC(C)C[C@H](NC(=O)[C@H](Cc1ccccc1)NC(=O)c1cnccn1)B(O)O [Bortezomib, reference compound]
early apoptotic cell ratio (K562 cells [1]; K562 cells, 3.12 µM, 24th hour): 18.1%
NF-kB inhibition [2]: NF-kB inhibition was observed
NF-kB inhibition (NF-kB in Caco2 cells): not observed
NF-kB inhibition [3]: NF-kB inhibition was observed
expression of NF-kB gene [4]: decreases expression
expression of NF-kB gene [5]: decreases expression

CC(C)C[C@H](NC(=O)CNC(=O)c1cc(Cl)ccc1Cl)B(O)O [MLN2238]
NF-kB levels [6]: significant decreases

(4-(2-amino-2-(10,11-dioxo-10,11-dihydro-5H-imidaso[1,5,4,3-lmn][1,10]phenanthrolin-5-il]ethyl]phenyl]boronic acid [inventive compound]
apoptotic cell ratio (K562 cells [1]; K562 cells, 1.5 µM): 13.7%
early and late apoptotic cell rate (K562 cells [1]; K562 cells, 12.5 µM): 38.2%
apoptotic effect (K562 cells [1]; K562 cells, 1.5, 3.12, 6.25 and 12.5 µM, 24th hour): increased the apoptotic effect
early-late apoptotic and necrotic cell rates (K562 cells [1]; K562 cells, concentrations of 6.5 and 12.5 µM, compared to control): increase compared to control
early apoptotic effect (HL-60 cell line; Annexin-V/7-AAD): has not displayed early apoptotic effect
necrotic cell rates (HL-60 cell line; concentrations of 3.12 µM and more, compared to control): increase compared to control
IC50 (K562 cells [7]; 24th hour): 2620 nM
IC50 (K562 cells [7]; 48th hour): 3410 nM
IC50 (HL-60 cells [8]; 24th hour): 2160 nM
IC50 (HL-60 cells [8]; 48th hour): 2850 nM
ratio of JC-1 positive cells (K562 cells [9]): 14.7%
ratio of JC-1 positive cells (HL-60 cells [10]): 37.1%
expression of NFkB-1, p53, PIK3CA, BCL-3, ICAM1, KRAS and BCR genes [11]: decreases expression
expression of NFkB-1, p53, PIK3CA, BCL-3, ICAM1, KRAS and BCR genes [12]: decreases expression
c-myc expression [4]: decreased
expression of NF-kB gene [4]: decreases expression
expression of NF-kB gene [5]: decreases expression
c-myc expression ([5]; versus control group): higher than control group values
increase in the ratio of caspase 3/7 positive cells, K562 cells in comparison to HL-60 cells (K562 cells [13]): 2 times
